Columns and labels:
[1] = test system: Pyricularia oryzae; format: in vivo; settings: aqueous dispersion containing 250 ppm active ingredient; rice seedlings, protective, assessed after 6 days
[2] = test system: mitochondrial respiration; assay: Inhibition of mitochondrial respiration (rate of reduction of cytochrome c in isolated mitochondria), house fly; format: biochemical, Musca domestica; settings: DMSO control
Description: (§1) It is also possible similarly to isolate mitochondria from other organisms, e.g. from the phytopathogenic fungus Drechslera sorokiniana (synonym: Helminthosporium sativum), from the dermatophyte Trichophyton mentagrophytes, which is a human pathogen, and, for example, from the house fly (Musca domestica) as insect or from the spider mite Tetranychus urticae.
(§2) Used as control is a mixture with the equivalent amount of pure DMSO. The inhibition at the concentration of agent in each case is then calculated as follows [formula] where ΔE is the change in extinction, at is the change in time, [formula] is the reaction rate for the control and [formula] is the reaction rate for the sample x.
(§3) The inhibition was determined in each case at a test substance concentration of 1.8/10^-5mol/l .

[3] = test system: wheat mildew (Erysiphe graminis var. tritici); assay: Activity against wheat mildew on wheat seedlings; format: in vivo; settings: aqueous dispersion containing 250 ppm active ingredient, assessed after 7 days
Description: Leaves of pot-grown wheat seedlings of the Fruhgold variety were sprayed with an aqueous liquor which contained 80% of active ingredient and 20% of emulsifier in dry matter and, 24 hours after the sprayed-on layer had dried, were dusted with spores of wheat mildew (Erysiphe graminis var. tritici). The test plants were then placed in a greenhouse at from 20° to 22° C. and from 75 to 80% relative humidity. The extent of mildew spread was assessed after 7 days.

[4] = test system: Plasmopara viticola; assay: Activity against Plasmopara viticola on potted vines; format: in vivo; settings: aqueous dispersion containing 250 ppm active ingredient, infected 8 days after spraying
Description: Leaves of potted vines of the Muller Thurgau variety were sprayed with an aqueous liquor which contained 80% of active ingredient and 20% of emulsifier in dry matter. To assess the duration of action of the active ingredient, after the sprayed-on layer had dried the plants were placed in a greenhouse for 8 days. The leaves were then infected with a suspension of Plasmopara viticola zoospores. The vines were then placed first in a chamber saturated with water vapor at 24° C. for 48 hours and then in a greenhouse at from 20° to 30° C. for 5 days. After this, to speed up sporangiophore discharge, the plants were again placed in the humidity chamber for 16 hours. The extent of fungus attack was then assessed on the undersides of the leaves.

[5] = test system: mitochondrial respiration; assay: Inhibition of mitochondrial respiration (rate of reduction of cytochrome c in isolated mitochondria), phytopathogenic fungus; format: biochemical, Drechslera sorokiniana; settings: DMSO control
Description: as §1, §2, §3

[6] = test system: mitochondrial respiration; assay: Inhibition of mitochondrial respiration (rate of reduction of cytochrome c in isolated mitochondria), yeast; format: biochemical, Saccharomyces cerevisiae; settings: DMSO control
Description: In order to determine the effect of the compounds according to the invention on mitochondrial respiration it is first necessary to isolate the mitochondria from the organisms being investigated. For this, in the case of the yeast Saccharomyces cerevisiae, the cells in a 30 to 40% strength suspension of the yeast in an aqueous solution of 0.6M mannitol+0.01M tris[hydroxymethyl]-aminomethane+0.002M disodium ethylenediaminetetraacetate (pH 6.8) are disrupted in a glass bead mill, and the extract is fractionated by differential centrifugation at 1000× g and 12000× g. The mitochondria are in the pellet from the 12000× g centrifugation.
as §2, §3

O=C(C=C(c1ccccc1)c1ccccc1)N1CCOCC1 [A, morpholide of β-phenylcinnamic acid, reference compound] was tested, and the “fungal attack, Pyricularia oryzae” value [1] was 60%, the “% inhibition of respiration at 1.8 × 10^-5 mol/l test substance, Musca domestica” value (“% inhibition of respiration … Musca domestica” below) [2] was 5% and the “fungal attack, wheat mildew” value [3] was 45%. The “fungal attack, Plasmopara viticola” value [4] was 35%, the “% inhibition of respiration at 1.8 × 10^-5 mol/l test substance, Drechslera sorokiniana” value (shortened to “% inhibition … Drechslera sorokiniana”) [5] was 0% and the “% inhibition of respiration at 1.8 × 10^-5 mol/l test substance, Saccharomyces cerevisiae” value (shortened to “% inhibition … Saccharomyces cerevisiae”) [6] was 2%.

COC(=O)/C=C(/OC)c1ccccc1COc1ccc(C(C)=NOCC(C)C)cc1C [Compound 1a.60] was tested, and the “% inhibition of respiration … Musca domestica” value [2] was 93%, the “fungal attack, wheat mildew” value [3] was 15% and the “% inhibition … Drechslera sorokiniana” value [5] was 99%. The “% inhibition … Saccharomyces cerevisiae” value [6] was 97%.

CO/N=C(\C)c1ccc(OCc2ccccc2/C(=C\C(=O)OC)OC)c(C)c1 [Compound 1a.72, methyl (E)-β-methoxy-2-[2-methyl-4-(1-methoximinoethyl)phenoxymethyl]cinnamate] was tested, and the “fungal attack, Pyricularia oryzae” value [1] was 15%, the “% inhibition of respiration … Musca domestica” value [2] was 94% and the “fungal attack, wheat mildew” value [3] was 15%. For the same molecule, the “fungal attack, Plasmopara viticola” value [4] was 10%, the “% inhibition … Drechslera sorokiniana” value [5] was 100% and the “% inhibition … Saccharomyces cerevisiae” value [6] was 98%.

For COC(=O)/C=C(/OC)c1ccccc1COc1nc(-c2ccccc2)cs1 [Compound 1a.181, methyl (E)-β-methoxy-2-(4-phenyl-2-thiazolyloxymethyl)cinnamate], the “fungal attack, Pyricularia oryzae” value [1] was 15% and the “% inhibition … Saccharomyces cerevisiae” value [6] was 99%.

For COC(=O)/C=C(/OC)c1ccccc1/C=C/c1ccccc1[N+](=O)[O-] [Compound 1a.238], the “% inhibition of respiration … Musca domestica” value [2] was 87%, the “fungal attack, Plasmopara viticola” value [4] was 10% and the “% inhibition … Drechslera sorokiniana” value [5] was 74%. The “% inhibition … Saccharomyces cerevisiae” value [6] was 99%.

For COC(=O)/C=C(/OC)c1ccccc1/C=C\c1ccccc1C [Compound 1a.248], the “fungal attack, Pyricularia oryzae” value [1] was 15%, the “fungal attack, wheat mildew” value [3] was 15% and the “% inhibition … Saccharomyces cerevisiae” value [6] was 95%.

With COC(=O)/C=C(/OC)c1ccccc1/C=C\c1ccc(-c2ccccc2)cc1 [Compound 1a.269, methyl 2-[2-(4-phenylphenyl)-(Z)-ethenyl]-(E)-β-methoxycinnamate] the “% inhibition of respiration … Musca domestica” value [2] was 76%, the “% inhibition … Drechslera sorokiniana” value [5] was 81% and the “% inhibition … Saccharomyces cerevisiae” value [6] was 96%.

COC(=O)/C=C(/OC)c1ccccc1/C=C/c1ccc(Oc2ccccc2)cc1 [Compound 1a.273] was tested, and the “% inhibition of respiration … Musca domestica” value [2] was 95%, the “% inhibition … Drechslera sorokiniana” value [5] was 96% and the “% inhibition … Saccharomyces cerevisiae” value [6] was 95%.

With COC(=O)/C=C(/OC)c1ccccc1/C=C/c1ccoc1 [Compound 1a.292] the “% inhibition of respiration … Musca domestica” value [2] was 61%, the “fungal attack, wheat mildew” value [3] was 15% and the “% inhibition … Drechslera sorokiniana” value [5] was 79%. The “% inhibition … Saccharomyces cerevisiae” value [6] was 87%.

For COC(=O)/C=C(/OC)c1ccccc1/C=C/c1coc(-c2ccc(Cl)cc2)n1 [Compound 1a.302], the “fungal attack, Pyricularia oryzae” value [1] was 15%, the “% inhibition of respiration … Musca domestica” value [2] was 96% and the “% inhibition … Saccharomyces cerevisiae” value [6] was 97%.

In the case of COC(=O)/C=C(/OC)c1ccccc1/C=C/c1csc(-c2ccc(Cl)cc2)n1 [Compound 1a.314], the “fungal attack, Pyricularia oryzae” value [1] is reported as 15% and the “% inhibition … Saccharomyces cerevisiae” value [6] is reported as 99%.

With COC(=O)/C=C(/OC)c1ccccc1CON=C(C)c1ccc(Cl)cc1 [Compound 1a.356, methyl2-[1-(4-chlorophenyl)ethylideneaminoxymethyl]-(E)-β-methoxycinnamate] the “fungal attack, Pyricularia oryzae” value [1] was 15%, the “fungal attack, wheat mildew” value [3] was 15% and the “fungal attack, Plasmopara viticola” value [4] was 10%.

From US5573999A, “β-substituted cinnamic acid derivative” (BASF Aktiengesellschaft, priority 1991, dated 1996)
